According to patent US6436960B1, “Farnesyl transferase inhibitors having a piperidine structure and process for preparation thereof” (LG Chemical Ltd., priority 1998, dated 2002):

Assays:
Ras farnesyl transferase [1] = molecular target: T1, Ras farnesyl transferase (Homo sapiens, UniProt P49354+P49356); assay: in vitro inhibitory activity for Ras farnesyl transferase, H-Ras substrate; format: biochemical
T1 construct: made in house
Description: (§1) In the present experiment, Ras farnesyl transferase produced by genetic recombination techniques according to the improved Pompliano's method (Pompliano et al., Biochemistry, 1992, 31, 3800) was used, and Ras substrate(Ras-CVLS) protein described in Korean Patent Appln. No. 97-14409 was used after it has been purified according to the known method(see, Chung et al., Biochimica et Biophysica Acta, 1992, 278, 1129).
(§2) The enzyme reaction was performed in 50 μl of 50 mM Soduam HEPES buffer solution containing 25 mM of potassium chloride, 25 mM of magnesium chloride, 10 mM of DTT and 50 μM of zinc chloride. 1.5 μM of Ras substrate protein, 0.15 μM of tritium-farnesylpyrophosphate and 4.5 nM of farnesyl transferase were used.
(§3) More specifically, in the initial step, farnesyl transferase was added to the above buffer solution, reaction was maintained for 30 minutes at 37° C. and then the reaction was stopped by adding 1 ml of ethanol solution containing 1M HCl. The formed precipitates were adsorbed to GF/B filter using Hopper harvestor(Hopper #FH 225V) for filter-binding, washed with ethanol, and then radioactivity of the dried filter was measured using LKB β counter. Enzyme titer was measured in the unsaturated state of substrate where the concentrations of Ras substrate protein and farnesyl transferase have quantitative relationship. The compound according to the present invention dissolved in dimethyl sulfoxide(DMSO) was added to the reaction solution in an amount of less than 5% of the total reaction solution, and then the enzyme inhibitory activity thereof was measured. The enzyme inhibitory activity was represented by percentage of the amount of farnesyl incorporated into the Ras substrate protein in the presence of the test compound to that in the absence of the test compound. IC50 of the test compound was defined as the concentration at which 50% of the enzyme activity was inhibited.

Ras farnesyl transferase [2] = molecular target: T1, Ras farnesyl transferase; assay: in vitro inhibitory activity for Ras farnesyl transferase, K-Ras substrate; format: biochemical
Description: as §1, with “and Ras substrate(Ras-CVLS) protein described in Korean Patent” left out
as §2, §3

Ras farnesyl transferase [3] = molecular target: T2, Ras farnesyl transferase (Rattus norvegicus, UniProt Q02293+Q04631); assay: in vivo (cellular) Ras farnesyl transferase inhibitory activity, Rat2 cells expressing C-Harvey-Ras; format: cell-based
T2 construct: endogenous in cells; host or cells: Rat2 fibroblasts transformed with C-Harvey-Ras, or with H-Ras carrying the K-Ras C-terminal polybasic lysine domain
Description: (§4) In the present experiment, Rat2 cell line which expresses C-Harvey-Ras protein having transforming activity and Rat2 cell line(Korean patent application No. 97-14409) which is transformed with fused protein of H-Ras substituted with polybasic lysine domain at C-terminus of K-Ras were used. The experiment was performed by the modified Declue's method(Declue. J. E. et al., Cancer Research, 1991, 51, 712). Hereinafter, the experimental method will be described in more detail.
(§5) 3×10^5 cells of transformed Rat2 fibroblast cell line were sprayed on 60 mm cell cultivation dish and cultivated for 48 hours in a cell incubator at 37° C. and after 50% or more of density was reached, it was treated with the test compounds. The compound according to the present invention dissolved in dimethylsulfoxide(DMSO) was used. 1% concentration of dimethylsulfoxide was used in both control and test groups. After 4 hours from the treatment with the compound, methionine labeled with 150 μCi of radioactive isotope [^35S] per 1 ml of medium was added and after cultivating for 20 hours, the cells were washed with physiological saline water. The cells were lysed using 1 ml of cold cell lysis buffer solution(50 mM of Sodium HEPES buffer solution containing 5 mM of magnesium chloride, 1 mM of DTT, 1% NP 40, 1 mM of EDTA, 1 mM of PMSF, 2 μM of leupeptin, 2 μM of pepstatin A and 2 μM of antipain) and the supernatant wherein the cells were lysed was obtained by high-velocity centrifugation of 12,000 g×5 minutes. The amount of radioisotope in the supernatant was measured and standardized to obtain a quantitative result in immunoprecipitation reaction and then, Y13-259, a monoclonal antiboby specifically binding to Ras protein(Furth, M. E. et al., J. Virol, 1982, 43, 294) was added and reacted for 15 hours at 4° C. Protein A(combined with goat anti-murine imunoglobulin antibody)-agarose suspension was added to the solution and reacted for 1 hour at 4° C. and then, to remove the unspecific binding product, immunoprecipitates were washed with a buffer solution (50 mM Tris chloride buffer solution containing 50 mM of sodium chloride, 0.5% of sodium dioxycholate, 0.5% of NP 40 and 0.1% of SDS). The precipitates were added to a buffer solution for electrophoresis and boiled and then, electrophoresis was performed using 13.5% of SDS polyacrylamide gel. After electrophoresis, the gel was fixed and dried. Then, the gel was exposed to X-ray film, developed and printed. From the result of the experiment, intensities of band of protein combined with or without farnesyl of Ras protein were measured, and the concentration of the test compound inhibiting 50% of farnesyl binding was defined as CIC50, an in vivo Ras farnesyl transferase inhibitory activity.

Ras farnesyl transferase [4] = molecular target: T2, Ras farnesyl transferase; assay: in vivo (cellular) Ras farnesyl transferase inhibitory activity, Rat2 cells transformed with H-Ras fused with polybasic lysine domain of K-Ras; format: cell-based
Description: as §4, §5

[5] = recombinant Ras farnesyl transferase, H-Ras substrate, tritium-farnesylpyrophosphate, 30 minutes at 37° C., read-out: H-Ras IC50
[6] = recombinant Ras farnesyl transferase, K-Ras substrate, read-out: K-Ras IC50
[7] = Rat2 cell line expressing C-Harvey-Ras, concentration inhibiting 50% of farnesyl binding of Ras protein, read-out: H-Ras CIC50
[8] = Rat2 cell line transformed with H-Ras substituted with polybasic lysine domain at C-terminus of K-Ras, concentration inhibiting 50% of farnesyl binding, read-out: K-Ras CIC50

O=C(c1ccn(Cc2cncn2CC2CCN(C(=O)OCc3ccccc3)CC2)c1)c1cccc2ccccc12 [Compound 36, 1-{1-[1-(Benzyloxycarbonyl)piperidin-4-yl]methyl-1H-imidazol-5-yl}methyl-3-(naphthalen-1-yl)carbonyl-1H-pyrrole]
IC50 (Ras farnesyl transferase [1]): 200 nM | IC50 (Ras farnesyl transferase [2]): > 100000 nM | IC50 (Ras farnesyl transferase [3]): 10000 nM | IC50 (Ras farnesyl transferase [4]): 50000 nM

CN1CCN(C(=O)c2cn(Cc3cncn3CC3CCN(C(=O)OCc4ccccc4)CC3)cc2-c2cccc3ccccc23)CC1 [Compound 38, 1-[1-(1-Benzyloxycarbonylpiperidin-4-yl)methyl-1H-imidazol-5-yl]methyl-3-(4-methylpiperazin-1-yl)carbonyl-4-(naphthalen-1-yl)-1H-pyrrole]
IC50 (Ras farnesyl transferase [1]; [5]): 3.8 nM | IC50 (Ras farnesyl transferase [2]; [6]): 15 nM | IC50 (Ras farnesyl transferase [3]; [7]): 12.5 nM | IC50 (Ras farnesyl transferase [4]; [8]): 2500 nM

CC(C)c1nc(C(=O)N2CCC(Cn3cncc3Cn3cc(C(=O)N4CCN(C)CC4)c(-c4cccc5ccccc45)c3)CC2)cs1 [Compound 51]
IC50 (Ras farnesyl transferase [1]; [5]): 3 nM | IC50 (Ras farnesyl transferase [2]; [6]): 10 nM | IC50 (Ras farnesyl transferase [3]; [7]): 5 nM | IC50 (Ras farnesyl transferase [4]; [8]): 10000 to 50000 nM

CN1CCN(C(=O)c2cn(Cc3cncn3CC3CCN(C(=O)OCc4ccc(F)cc4)CC3)cc2-c2cccc3ccccc23)CC1 [Compound 47]
IC50 (Ras farnesyl transferase [1]; [5]): 3.3 nM | IC50 (Ras farnesyl transferase [2]; [6]): 6 nM | IC50 (Ras farnesyl transferase [3]; [7]): 12.5 nM | IC50 (Ras farnesyl transferase [4]; [8]): 4000 nM

COCCN(C)C(=O)c1cn(Cc2cncn2CC2CCN(S(C)(=O)=O)CC2)cc1-c1cccc2ccccc12 [Compound 8, 3-[N-(2-Methoxyethyl)-N-methyl]carbamoyl-1-[1-(1-methylsulfonyl-piperidin-4-ylmethyl)-1H-imidazol-5-ylmethyl]-4-(naphthalen-1-yl)-1H-pyrrole]
IC50 (Ras farnesyl transferase [1]; [5]): 1.2 nM | IC50 (Ras farnesyl transferase [2]; [6]): 10 to 100 nM | IC50 (Ras farnesyl transferase [3]; [7]): 10 to 100 nM | IC50 (Ras farnesyl transferase [4]; [8]): 10000 to 50000 nM

COCCN(C)C(=O)c1cn(Cc2cncn2CC2CCN(C(=O)CCc3ccccc3)CC2)cc1-c1cccc2ccccc12 [Compound 15, 3-[N-(2-Methoxyethyl)-N-methyl]carbamoyl-4-(naphthalen-1-yl)-1-{1-[1-(2-phenylethylcarbonyl)-piperidin-4-ylmethyl]-1H-imidazol-5-ylmethyl}-1H-pyrrole]
IC50 (Ras farnesyl transferase [1]; [5]): 1 nM | IC50 (Ras farnesyl transferase [2]; [6]): 10 to 1000 nM | IC50 (Ras farnesyl transferase [3]; [7]): 10 to 100 nM | IC50 (Ras farnesyl transferase [4]; [8]): 1000 to 50000 nM

COCCN(C)C(=O)c1cn(Cc2cncn2CC2CCN(C(=O)N3CCCc4ccccc43)CC2)cc1-c1cccc2ccccc12 [Compound 31, 3-[N-(2-Methoxyethyl)-N-methyl]carbamoyl-4-(naphthalen-1-yl)-1-{1-[1-(1,2,3,4-tetrahydroquinolin-1-ylcarbonyl)piperidin-4-ylmethyl]-1H-imidazol-5-ylmethyl}-1H-pyrrole]
IC50 (Ras farnesyl transferase [1]; [5]): 4 nM | IC50 (Ras farnesyl transferase [2]; [6]): 20 nM | IC50 (Ras farnesyl transferase [3]; [7]): 10 to 100 nM | IC50 (Ras farnesyl transferase [4]; [8]): 10000 to 50000 nM

COCCN(C)C(=O)c1cn(Cc2cncn2CC2CCN(C(C)=O)CC2)cc1-c1cccc2ccccc12 [Compound 7, 1-[1-(1-Acetyl-piperidin-4-ylmethyl)-1H-imidazol-5-ylmethyl]-3-[N-(2-methoxyethyl)-N-methyl]carbamoyl-4-(naphthalen-1-yl)-1H-pyrrole]
IC50 (Ras farnesyl transferase [1]; [5]): 1.8 nM | IC50 (Ras farnesyl transferase [2]; [6]): 10 to 100 nM | IC50 (Ras farnesyl transferase [3]; [7]): 10 to 100 nM | IC50 (Ras farnesyl transferase [4]; [8]): 10000 to 100000 nM

O=C(OCc1ccccc1)N1CCC(Cn2cncc2Cn2cc(C(=O)N3CCOCC3)c(-c3cccc4ccccc34)c2)CC1 [Compound 1, 1-[1-(1-Benzyloxycarbonyl-piperidin-4-ylmethyl)-1H-imidazol-5-ylmethyl]-3-(morpholin-4-yl)carbonyl-4-(naphthalen-1-yl)-1H-pyrrole]
IC50 (Ras farnesyl transferase [1]; [5]): 8.5 nM | IC50 (Ras farnesyl transferase [2]; [6]): 2400 nM | IC50 (Ras farnesyl transferase [3]; [7]): 100 nM | IC50 (Ras farnesyl transferase [4]; [8]): 1000 to 10000 nM

COCCN(C)C(=O)c1cn(Cc2cncn2CC2CCN(C(=O)OCC=C(C)C)CC2)cc1-c1cccc2ccccc12 [Compound 22]
IC50 (Ras farnesyl transferase [1]; [5]): 9 nM | IC50 (Ras farnesyl transferase [2]; [6]): 20 nM | IC50 (Ras farnesyl transferase [3]; [7]): 10 to 100 nM | IC50 (Ras farnesyl transferase [4]; [8]): 1000 to 10000 nM

COCCN(C)C(=O)c1cn(Cc2cncn2CC2CCN(C(=O)Cc3ccc(OC)cc3)CC2)cc1-c1cccc2ccccc12 [Compound 13, 1-{1-[1-(4-Methoxybenzylcarbonyl)-piperidin-4-ylmethyl]-1H-imidazol-5-ylmethyl}-3-[N-(2-methoxyethyl)-N-methyl]carbamoyl-4-(naphthalen-1-yl)-1H-pyrrole]
IC50 (Ras farnesyl transferase [1]; [5]): 1 to 10 nM | IC50 (Ras farnesyl transferase [2]; [6]): 10 to 1000 nM | IC50 (Ras farnesyl transferase [3]; [7]): 10 to 100 nM | IC50 (Ras farnesyl transferase [4]; [8]): 1000 to 50000 nM

COCCN(C)C(=O)c1cn(Cc2cncn2CC2CCN(C(=O)OCCC(C)C)CC2)cc1-c1cccc2ccccc12 [Compound 23]
IC50 (Ras farnesyl transferase [1]; [5]): 8 nM | IC50 (Ras farnesyl transferase [2]; [6]): 20 nM | IC50 (Ras farnesyl transferase [3]; [7]): 10 to 100 nM | IC50 (Ras farnesyl transferase [4]; [8]): 1000 to 10000 nM

CN1CCN(C(=O)c2cn(Cc3cncn3CC3CCN(C(=O)OC/C=C/c4ccccc4)CC3)cc2-c2cccc3ccccc23)CC1 [Compound 48]
IC50 (Ras farnesyl transferase [1]; [5]): 3.3 nM | IC50 (Ras farnesyl transferase [2]; [6]): 7 nM | IC50 (Ras farnesyl transferase [3]; [7]): 12.5 nM | IC50 (Ras farnesyl transferase [4]; [8]): 1000 nM

CN1CCN(C(=O)c2cn(Cc3cncn3CC3CCN(C(=O)OCc4ccc5ccccc5c4)CC3)cc2-c2cccc3ccccc23)CC1 [Compound 45, 3-(4-Methylpiperazin-1-yl)carbonyl-4-(naphthalen-1-yl)-1-{1-[1-(naphthalen-2-ylmethyloxy)carbonylpiperidin-4-yl]methyl-1H-imidazol-5-yl}methyl-1H-pyrrole]
IC50 (Ras farnesyl transferase [1]; [5]): 1.8 nM | IC50 (Ras farnesyl transferase [2]; [6]): 12 nM | IC50 (Ras farnesyl transferase [3]; [7]): 35 nM | IC50 (Ras farnesyl transferase [4]; [8]): 10000 nM

COCCN(C)C(=O)c1cn(Cc2cncn2CC2CCN(C(=O)OCC(C)C)CC2)cc1-c1cccc2ccccc12 [Compound 35, 1-[1-(1-Isobutoxycarbonyl-piperidin-4-ylmethyl)-1H-imidazol-5-ylmethyl]-3-[N-(2-methoxyethyl)-N-methyl]carbamoyl-4-(naphthalen-1-yl)-1H-pyrrole]
IC50 (Ras farnesyl transferase [1]; [5]): 6 nM | IC50 (Ras farnesyl transferase [2]; [6]): 10 to 100 nM | IC50 (Ras farnesyl transferase [3]; [7]): 10 to 100 nM | IC50 (Ras farnesyl transferase [4]; [8]): 1000 to 10000 nM

CCCCCCC(=O)N1CCC(Cn2cncc2Cn2cc(C(=O)N(C)CCOC)c(-c3cccc4ccccc34)c2)CC1 [Compound 12, 1-[1-(1-Heptanoyl-piperidin-4-ylmethyl)-1H-imidazol-5-ylmethyl]-3-[N-(2-methoxyethyl)-N-methyl]carbamoyl-4-(naphthalen-1-yl)-1H-pyrrole]
IC50 (Ras farnesyl transferase [1]; [5]): 1 to 10 nM | IC50 (Ras farnesyl transferase [2]; [6]): 10 to 1000 nM | IC50 (Ras farnesyl transferase [3]; [7]): 10 nM | IC50 (Ras farnesyl transferase [4]; [8]): 1000 to 50000 nM

COCCN(C)C(=O)c1cn(Cc2cncn2CC2CCN(C(=O)N(C)Cc3ccccc3)CC2)cc1-c1cccc2ccccc12 [Compound 30]
IC50 (Ras farnesyl transferase [1]; [5]): 2.5 nM | IC50 (Ras farnesyl transferase [2]; [6]): 6 nM | IC50 (Ras farnesyl transferase [3]; [7]): 10 to 100 nM | IC50 (Ras farnesyl transferase [4]; [8]): 1000 to 10000 nM
